Laboratory results reported in paper PMC4142213 (Nature, 2014).

System: DIO mice
Assay: OGTT with co-administration of 6bK and sitagliptin
Type: in vivo, mouse
Conditions: OGTT 3.0 g kg^-1, sitagliptin 4 mg kg^-1 oral, 6bK 40 mg kg^-1

N[C@@H](CC(=O)N1CCn2c(nnc2C(F)(F)F)C1)Cc1cc(F)c(F)cc1F [sitagliptin]
reduction of blood glucose profile area compared to vehicle: 60–64%
